Test results from patent publication US4728726A, “GRF analogs IIIb” (The Salk Institute for Biological Studies, priority 1986, dated 1988).
Square brackets hold non-standard residues; d marks the D form. Ends that are not written are not given here. Peptide text beside a SMILES is read from it. Nle = CCCC[C@H](N)C(=O)O

System: cells of rat pituitary glands
Experiment: in vitro assay of growth hormone release from cultured rat pituitary cells (ir GH by radioimmunoassay)
Assay type: cell-based
Conditions: potency for GH release relative to standard hGRF(1-40)-OH = 100%; equimolar concentrations; incubation 3 to 4 hours
Protocol: To determine the relative effectiveness of certain representative synthetic peptides to promote the release of growth hormone, in vitro assays are carried out using synthetic hpGRF(1-40)-OH as a standard in side-by-side comparison with equimolar concentrations of the representative analogs which have been synthesized. Cultures are used which include cells of rat pituitary glands removed some three to five days previously. Such cultures are considered optimal for the secretion of growth hormone and are used for the comparative testing, in the general manner described in Vale et al. Endocrinology, 91, 562-572 (1972) and as more particularly described in Vale et al. Endocrinology, 112, 1553-1555 (1983). Incubation with the substance to be tested is carried out for 3 to 4 hours, and aliquots of the culture medium are removed and processed to measure their contents in immunoreactive GH(ir GH) by a well-characterized radioimmunoassay.

| Compound | Comparison % |
| --- | --- |
| CCCC[C@H](NC(=O)[C@@H](NC(=O)[C@H](CC(=O)O)NC(=O)[C@H](CCC(N)=O)NC(=O)[C@H](CC(C)C)NC(=O)[C@H](CC(C)C)NC(=O)[C@H](CCCCN)NC(=O)[C@H](CCCNC(=N)N)NC(=O)[C@H](C)NC(=O)[C@H](CO)NC(=O)[C@H](CC(C)C)NC(=O)[C@H](CCC(N)=O)NC(=O)CNC(=O)[C@H](CC(C)C)NC(=O)[C@@H](NC(=O)[C@H](CCCCN)NC(=O)[C@H](CCCNC(=N)N)NC(=O)[C@H](Cc1ccc(O)cc1)NC(=O)[C@H](CO)NC(=O)[C@H](CC(N)=O)NC(=O)[C@@H](NC(=O)[C@H](Cc1ccccc1)NC(=O)[C@@H](NC(=O)[C@H](C)NC(=O)[C@H](CC(=O)O)NC(=O)[C@H](C)NC(=O)[C@@H](N)Cc1ccc(O)cc1)[C@@H](C)CC)[C@@H](C)O)C(C)C)[C@@H](C)CC)C(=O)N[C@@H](CO)C(=O)N[C@@H](CCCNC(=N)N)C(N)=O [[Nle^27]-hGRF(1-29)-NH2] | 238% |
| CCCC[C@H](NC(=O)[C@@H](NC(=O)[C@H](CC(=O)O)NC(=O)[C@H](CCC(N)=O)NC(=O)[C@H](CC(C)C)NC(=O)[C@H](CC(C)C)NC(=O)[C@H](CCCCN)NC(=O)[C@H](CCCNC(=N)N)NC(=O)[C@H](C)NC(=O)[C@H](CO)NC(=O)[C@H](CC(C)C)NC(=O)[C@H](CCC(N)=O)NC(=O)CNC(=O)[C@H](CC(C)C)NC(=O)[C@@H](NC(=O)[C@H](CCCCN)NC(=O)[C@H](CCCNC(=N)N)NC(=O)[C@H](Cc1ccc(O)cc1)NC(=O)[C@H](CO)NC(=O)[C@H](CC(N)=O)NC(=O)[C@@H](NC(=O)[C@H](Cc1ccccc1)NC(=O)[C@@H](NC(=O)[C@H](C)NC(=O)[C@H](CC(=O)O)NC(=O)[C@@H](C)NC(=O)[C@@H](N)Cc1ccc(O)cc1)[C@@H](C)CC)[C@@H](C)O)C(C)C)[C@@H](C)CC)C(=O)N[C@@H](CC(N)=O)C(=O)N[C@@H](CCCNC(=N)N)C(=O)NCC [[D-Ala^2, Nle^27, Asn^28]-hGRF(1-29)-NHEt] (H-Y[dA]DAIFTNSYRKVLGQLSARKLLQDI[Nle]NR-NHEt) | 1714% |
| CCCC[C@H](NC(=O)[C@@H](NC(=O)[C@H](CC(=O)O)NC(=O)[C@H](CCC(N)=O)NC(=O)[C@H](CC(C)C)NC(=O)[C@H](CC(C)C)NC(=O)[C@H](CCCCN)NC(=O)[C@H](CCCNC(=N)N)NC(=O)[C@H](C)NC(=O)[C@H](CO)NC(=O)[C@H](CC(C)C)NC(=O)[C@H](CCC(N)=O)NC(=O)CNC(=O)[C@H](CC(C)C)NC(=O)[C@@H](NC(=O)[C@H](CCCCN)NC(=O)[C@H](CCCNC(=N)N)NC(=O)[C@H](Cc1ccc(O)cc1)NC(=O)[C@H](CO)NC(=O)[C@H](CC(N)=O)NC(=O)[C@@H](NC(=O)[C@H](Cc1ccccc1)NC(=O)[C@@H](NC(=O)[C@H](C)NC(=O)[C@H](CC(=O)O)NC(=O)[C@@H](C)NC(=O)[C@@H](N)Cc1ccc(O)cc1)[C@@H](C)CC)[C@@H](C)O)C(C)C)[C@@H](C)CC)C(=O)N[C@@H](CO)C(=O)N[C@@H](CCCNC(=N)N)C(N)=O [[D-Ala^2, Nle^27]-hGRF(1-29)-NH2] | 429% |
| hGRF(1-40)-OH (YADAIFTNSYRKVLGQLSARKLLQDIMSRQQGESNQERGA-OH; UniProt P01286 32-71, looked up, fragment) [synthetic human pancreatic (tumor) GH releasing factor (1-40) free acid, used as standard for this test, reference compound] | 100% |
| CCCC[C@H](NC(=O)[C@@H](NC(=O)[C@H](CCC(=O)O)NC(=O)[C@H](Cc1c[nH]cn1)NC(=O)[C@H](CC(C)C)NC(=O)[C@H](CC(C)C)NC(=O)[C@H](CCCCN)NC(=O)[C@H](CCCNC(=N)N)NC(=O)[C@H](C)NC(=O)[C@H](Cc1ccc(O)cc1)NC(=O)[C@H](CC(C)C)NC(=O)[C@H](CCC(N)=O)NC(=O)CNC(=O)[C@H](CC(C)C)NC(=O)[C@@H](NC(=O)[C@H](CCCNC(=N)N)NC(=O)[C@H](CCCNC(=N)N)NC(=O)[C@H](Cc1ccc(O)cc1)NC(=O)[C@H](CO)NC(=O)[C@H](CO)NC(=O)[C@@H](NC(=O)[C@H](Cc1ccccc1)NC(=O)[C@@H](NC(=O)[C@H](C)NC(=O)[C@H](CC(=O)O)NC(=O)[C@H](C)NC(=O)[C@@H](N)Cc1c[nH]cn1)[C@@H](C)CC)[C@@H](C)O)[C@@H](C)CC)[C@@H](C)CC)C(=O)N[C@H](CC(N)=O)C(=O)N[C@@H](CCCNC(=N)N)C(N)=O [[Nle^27, D-Asn^28]-rGRF(1-29)-NH2] (H-HADAIFTSSYRRILGQLYARKLLHEI[Nle][dN]R-NH2) | 321% |
